Assay results reported in patent publication US6515018B1, “Synergistic compositions for lycopene and Vitamin E for the prevention of LDL oxidation” (Lycored Natural Products Industries Ltd., priority 1997, dated 2003).

Legend:
Format in all cases: biochemical, human
[1] = system: LDL; assay: CuSO4-induced LDL oxidation measured by TBARS formation; details: CuSO4 (5 μM)-induced LDL oxidation; oleoresin concentration as lycopene; read-out: IC50 for the inhibition of TBARS formation
Protocol: (§1) Stock solutions of 1 mM of purified lycopene or of 10 mg/ml of tomato's oleoresin, were prepared in Tetrahydrofuran (THF, HPLC grade). All procedures were performed in dim light. LDL was incubated with the respective concentrations of tomato's oleoresin or with 3 μM of lycopene (3 μl/ml THF, derived from a stock solution of 1 mM) for 30 minutes at 37° C. in the dark. LDL incubated with THF alone served as control.
(§2) Oxidation of LDL was carried out in a shaking water bath at 37° C. under air, in plastic tubes (1 cm in diameter). For metal ions dependent oxidation LDL was incubated for 4 hours at 37° C. with freshly prepared CuSO4 (5 μM).
(§3) LDL oxidation was determined by measuring the amount of thiobarbituric acid reactive substances (TBARS) (See: Buege J. A. and Aust S. D. Microsomal lipid peroxidation. Methods Enzymol. 1978; 52: 302-310) and by lipid peroxides formation using a commercially available kit.
(§4) LDL (100 μg of protein/ml) was preincubated for 30 min at 37° C. with either vitamin E or lycopene in various forms. LDL oxidation was induced by the addition of 5 μM of CuSO4 and was […] for 30 min at 37° C. LDL oxidaton was measured by the TBARS assay or by measuring the inhibition of the formation of lipid peroxides. Results are shown in FIG. 1 for vitamin E inhibition and FIG. 2 for crystalline lycopene. […]

[2] = system: LDL; assay: CuSO4-induced LDL oxidation measured by lipid peroxides formation; details: CuSO4 (5 μM)-induced LDL oxidation; > = maximal concentration used did not achieve 50% inhibition
Protocol: as §1, §2, §3, §4

[3] = system: LDL; assay: Copper ions-induced LDL oxidation, Colby equation data, readout not marked (TBARS / lipid peroxides)
Protocol: as §1, §2, §3, §4

Compound: CC(C)=CCC/C(C)=C/C=C/C(C)=C/C=C/C(C)=C/C=C/C=C(C)/C=C/C=C(C)/C=C/C=C(\C)CCC=C(C)C [Crystalline lycopene, lycopene]
- IC50 [1]: > 50 µM
- IC50 [2]: > 50 µM
- B = Percent control of lycopene alone ([3]; Experiment 1: 1 μM crystalline lycopene alone): 0%

Compound: Vitamin E
- IC50 [1]: 6 µM
- IC50 [2]: 6.5 µM
- A = Percent control of vitamin E alone ([3]; 1 μM vitamin E alone): 0%
